Measured values from US11053204B2, “Pyrimidinyloxy benzene derivatives as herbicides” (FMC Corporation, priority 2015, dated 2021).

Legend:
Format in all cases: in vivo
[1] = test system: Italian ryegrass (Lolium multiflorum); assay: Test A preemergence, visual injury rating; conditions: for Ryegrass, Italian plant response rating: 0 to 100 scale (0 no effect, 100 complete control); for Plant response rating, Ryegrass, Italian: 31 g ai/ha, 0 to 100 scale, 0 no effect, 100 complete control
Procedure, shortened: (§1)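 Scoring: eye-based comparison with untreated controls, 0 for no effect through 100 for complete control, at about day 10. Treatments: directed soil spray preemergence; foliar spray postemergence on 2–10 cm plants at the one- to two-leaf stage. Medium: loam soil with sand.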

[2] = test system: barnyardgrass (Echinochloa crus-galli); assay: Test A preemergence, visual injury rating; conditions: for Barnyardgrass plant response rating: 0 to 100 scale (0 no effect, 100 complete control); for Plant response rating, Barnyardgrass: 31 g ai/ha, 0 to 100 scale, 0 no effect, 100 complete control
Procedure, shortened: as §1

[3] = test system: giant foxtail (Setaria faberii); assay: Test A preemergence, visual injury rating; conditions: for Foxtail, Giant plant response rating: 0 to 100 scale (0 no effect, 100 complete control); for Plant response rating, Foxtail, Giant: 31 g ai/ha, 0 to 100 scale, 0 no effect, 100 complete control
Procedure, shortened: as §1

[4] = test system: kochia (Kochia scoparia); assay: Test A preemergence, visual injury rating; conditions: for Kochia plant response rating: 0 to 100 scale (0 no effect, 100 complete control); for Plant response rating, Kochia: 31 g ai/ha, 0 to 100 scale, 0 no effect, 100 complete control
Procedure, shortened: as §1

[5] = test system: pigweed (Amaranthus retroflexus); assay: Test A preemergence, visual injury rating; conditions: for Pigweed plant response rating: 0 to 100 scale (0 no effect, 100 complete control); for Plant response rating, Pigweed: 31 g ai/ha, 0 to 100 scale, 0 no effect, 100 complete control
Procedure, shortened: as §1

[6] = test system: ragweed (common ragweed, Ambrosia elatior); assay: Test A preemergence, visual injury rating; conditions: for Ragweed plant response rating: 0 to 100 scale (0 no effect, 100 complete control); for Plant response rating, Ragweed: 31 g ai/ha, 0 to 100 scale, 0 no effect, 100 complete control
Procedure, shortened: as §1

[7] = test system: Italian ryegrass (Lolium multiflorum); assay: Test A postemergence, visual injury rating; conditions: 0 is no effect, 100 is complete control; for Ryegrass, Italian plant response rating: 31 g ai/ha, 0 to 100 scale, approximately 10 days
Procedure, shortened: as §1

[8] = test system: barnyardgrass (Echinochloa crus-galli); assay: Test A postemergence, visual injury rating; conditions: 0 is no effect, 100 is complete control; for Barnyardgrass plant response rating: 31 g ai/ha, 0 to 100 scale, approximately 10 days
Procedure, shortened: as §1

[9] = test system: blackgrass (Alopecurus myosuroides); assay: Test A postemergence, visual injury rating; conditions: 0 is no effect, 100 is complete control; for Blackgrass plant response rating: 31 g ai/ha, 0 to 100 scale, approximately 10 days
Procedure, shortened: as §1

[10] = test system: corn (Zea mays); assay: Test A postemergence, visual injury rating; conditions: 0 is no effect, 100 is complete control; for Corn plant response rating: 31 g ai/ha, 0 to 100 scale, approximately 10 days
Procedure, shortened: as §1

[11] = test system: galium (catchweed bedstraw, Galium aparine); assay: Test A postemergence, visual injury rating; conditions: 0 is no effect, 100 is complete control; for Galium plant response rating: 31 g ai/ha, 0 to 100 scale, approximately 10 days
Procedure, shortened: as §1

[12] = test system: giant foxtail (Setaria faberii); assay: Test A postemergence, visual injury rating; conditions: 0 is no effect, 100 is complete control; for Foxtail, Giant plant response rating: 31 g ai/ha, 0 to 100 scale, approximately 10 days
Procedure, shortened: as §1

[13] = test system: kochia (Kochia scoparia); assay: Test A postemergence, visual injury rating; conditions: 0 is no effect, 100 is complete control; for Kochia plant response rating: 31 g ai/ha, 0 to 100 scale, approximately 10 days
Procedure, shortened: as §1

[14] = test system: pigweed (Amaranthus retroflexus); assay: Test A postemergence, visual injury rating; conditions: 0 is no effect, 100 is complete control; for Pigweed plant response rating: 31 g ai/ha, 0 to 100 scale, approximately 10 days
Procedure, shortened: as §1

[15] = test system: ragweed (common ragweed, Ambrosia elatior); assay: Test A postemergence, visual injury rating; conditions: 0 is no effect, 100 is complete control; for Ragweed plant response rating: 31 g ai/ha, 0 to 100 scale, approximately 10 days
Procedure, shortened: as §1

[16] = test system: wheat (Triticum aestivum); assay: Test A postemergence, visual injury rating; conditions: 0 is no effect, 100 is complete control; for Wheat plant response rating: 31 g ai/ha, 0 to 100 scale, approximately 10 days
Procedure, shortened: as §1

[17] = test system: barnyardgrass (Echinochloa crus-galli); assay: Test B flooded paddy test, plant response rating; conditions: 250 g ai/ha; Flood; scale of 0 to 100 where 0 is no effect and 100 is complete control; 13 to 15 days
Procedure, shortened: (§2)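 Under a constant 3 cm flood, test compounds went directly into the paddy water. Following 13 to 15 days of greenhouse growth, treated species and controls were compared by eye.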

[18] = test system: ducksalad (Heteranthera limosa); assay: Test B flooded paddy test, plant response rating; conditions: 250 g ai/ha; Flood; scale of 0 to 100 where 0 is no effect and 100 is complete control; 13 to 15 days
Procedure, shortened: as §2

[19] = test system: rice (Oryza sativa); assay: Test B flooded paddy test, plant response rating; conditions: 250 g ai/ha; Flood; scale of 0 to 100 where 0 is no effect and 100 is complete control; 13 to 15 days
Procedure, shortened: as §2

[20] = test system: sedge, umbrella (small-flower umbrella sedge, Cyperus difformis); assay: Test B flooded paddy test, plant response rating; conditions: 250 g ai/ha; Flood; scale of 0 to 100 where 0 is no effect and 100 is complete control; 13 to 15 days
Procedure, shortened: as §2

Row | SMILES | Ryegrass, Italian plant response rating ([1]; 125 g ai/ha) | Barnyardgrass plant response rating ([2]; 125 g ai/ha) | Foxtail, Giant plant response rating ([3]; 125 g ai/ha) | Kochia plant response rating ([4]; 125 g ai/ha) | Pigweed plant response rating ([5]; 125 g ai/ha) | Ragweed plant response rating ([6]; 125 g ai/ha) | Ryegrass, Italian plant response rating (0 to 100 scale) ([7]; 125 g ai/ha) | Barnyardgrass plant response rating (0 to 100 scale) ([8]; 125 g ai/ha) | Blackgrass plant response rating (0 to 100 scale) ([9]; 125 g ai/ha) | Corn plant response rating (0 to 100 scale) ([10]; 125 g ai/ha) | Galium plant response rating (0 to 100 scale) ([11]; 125 g ai/ha) | Foxtail, Giant plant response rating (0 to 100 scale) ([12]; 125 g ai/ha) | Kochia plant response rating (0 to 100 scale) ([13]; 125 g ai/ha) | Pigweed plant response rating (0 to 100 scale) ([14]; 125 g ai/ha) | Ragweed plant response rating (0 to 100 scale) ([15]; 125 g ai/ha) | Wheat plant response rating (0 to 100 scale) ([16]; 125 g ai/ha) | Plant response rating, Barnyardgrass [17] | Plant response rating, Ducksalad [18] | Plant response rating, Rice [19] | Plant response rating, Sedge, Umbrella [20] | other results
1 | CN(OCC(F)(F)F)C(=O)c1c(Br)cccc1Oc1ncc(Cl)cn1 [Compound 25] | 0 | 0 | 10 | 0 | 40 | 0 | 0 | 0 | 0 | 0 | 20 | 0 | 10 | 30 | 10 | 0 | 0 | 0 | 0 | 0 | Ryegrass, Italian plant response rating ([1]; 500 g ai/ha): 0; Barnyardgrass plant response rating ([2]; 500 g ai/ha): 30; Foxtail, Giant plant response rating ([3]; 500 g ai/ha): 60; Kochia plant response rating ([4]; 500 g ai/ha): 50; Pigweed plant response rating ([5]; 500 g ai/ha): 80; Ragweed plant response rating ([6]; 500 g ai/ha): 0; Ryegrass, Italian plant response rating (0 to 100 scale) ([7]; 500 g ai/ha): 0; Barnyardgrass plant response rating (0 to 100 scale) ([8]; 500 g ai/ha): 10; Blackgrass plant response rating (0 to 100 scale) ([9]; 500 g ai/ha): 30; Corn plant response rating (0 to 100 scale) ([10]; 500 g ai/ha): 20; Galium plant response rating (0 to 100 scale) ([11]; 500 g ai/ha): 50; Foxtail, Giant plant response rating (0 to 100 scale) ([12]; 500 g ai/ha): 10; Kochia plant response rating (0 to 100 scale) ([13]; 500 g ai/ha): 50; Pigweed plant response rating (0 to 100 scale) ([14]; 500 g ai/ha): 60; Ragweed plant response rating (0 to 100 scale) ([15]; 500 g ai/ha): 20; Wheat plant response rating (0 to 100 scale) ([16]; 500 g ai/ha): 10
2 | O=C(OC(CCl)CCl)c1c(Br)cccc1Oc1ncc(Cl)cn1 [Compound 36] | 0 | 0 | 0 | 0 | 0 | 0 | 0 | 0 | 0 | 0 | 0 | 0 | 0 | 60 | 0 | 0 | 0 | 0 | 0 | 0 | Plant response rating, Ryegrass, Italian [1]: 0; Plant response rating, Barnyardgrass [2]: 0; Plant response rating, Foxtail, Giant [3]: 0; Plant response rating, Kochia [4]: 0; Plant response rating, Pigweed [5]: 0; Plant response rating, Ragweed [6]: 0; Ryegrass, Italian plant response rating [7]: 0; Barnyardgrass plant response rating [8]: 0; Blackgrass plant response rating [9]: 0; Corn plant response rating [10]: 0; Galium plant response rating [11]: 0; Foxtail, Giant plant response rating [12]: 0; Kochia plant response rating [13]: 0; Pigweed plant response rating [14]: 0; Ragweed plant response rating [15]: 0; Wheat plant response rating [16]: 0
3 | C=CC(C)COC(=O)c1c(Br)cccc1Oc1ncc(Cl)cn1 (stereo not drawn) [Compound 37] | 0 | 30 | 70 | 0 | 0 | 0 | 0 | 30 | 30 | 10 | 40 | 40 | 40 | 80 | 0 | 0 | 0 | 0 | 0 | 0 | Plant response rating, Ryegrass, Italian [1]: 0; Plant response rating, Barnyardgrass [2]: 0; Plant response rating, Foxtail, Giant [3]: 20; Plant response rating, Kochia [4]: 0; Plant response rating, Pigweed [5]: 0; Plant response rating, Ragweed [6]: 0; Ryegrass, Italian plant response rating [7]: 0; Barnyardgrass plant response rating [8]: 0; Blackgrass plant response rating [9]: 0; Corn plant response rating [10]: 0; Galium plant response rating [11]: 10; Foxtail, Giant plant response rating [12]: 0; Kochia plant response rating [13]: 0; Pigweed plant response rating [14]: 20; Ragweed plant response rating [15]: 0; Wheat plant response rating [16]: 0
4 | C#CCCOC(=O)c1c(Br)cccc1Oc1ncc(Cl)cn1 [Compound 38] | 0 | 90 | 100 | 40 | 100 | 0 | 0 | 60 | 0 | 10 | 80 | 90 | 60 | 100 | 10 | 0 | 0 | 40 | 0 | 30 | Plant response rating, Ryegrass, Italian [1]: 0; Plant response rating, Barnyardgrass [2]: 20; Plant response rating, Foxtail, Giant [3]: 30; Plant response rating, Kochia [4]: 0; Plant response rating, Pigweed [5]: 60; Plant response rating, Ragweed [6]: 0; Ryegrass, Italian plant response rating [7]: 0; Barnyardgrass plant response rating [8]: 10; Blackgrass plant response rating [9]: 0; Corn plant response rating [10]: 0; Galium plant response rating [11]: 50; Foxtail, Giant plant response rating [12]: 40; Kochia plant response rating [13]: 30; Pigweed plant response rating [14]: 80; Ragweed plant response rating [15]: 0; Wheat plant response rating [16]: 0
5 | CC(C)(C)OC(=O)c1c(F)cccc1Oc1ncc(Cl)cn1 [Compound 43] | 0 | 40 | 60 | 100 | 90 | 0 | 0 | 10 | 0 | 0 | 40 | 0 | 10 | 40 | 0 | 0 | 0 | 0 | 0 | 0 | Plant response rating, Ryegrass, Italian [1]: 0; Plant response rating, Barnyardgrass [2]: 0; Plant response rating, Foxtail, Giant [3]: 0; Plant response rating, Kochia [4]: 100; Plant response rating, Pigweed [5]: 30; Plant response rating, Ragweed [6]: 0; Ryegrass, Italian plant response rating [7]: 0; Barnyardgrass plant response rating [8]: 0; Blackgrass plant response rating [9]: 0; Corn plant response rating [10]: 0; Galium plant response rating [11]: 20; Foxtail, Giant plant response rating [12]: 0; Kochia plant response rating [13]: 0; Pigweed plant response rating [14]: 10; Ragweed plant response rating [15]: 0; Wheat plant response rating [16]: 0
